IC50 data for ten compounds are collected here from patent publication US7037937B2, “Cytotoxic compounds” (Parker Hughes Institute, priority 2001, dated 2006).

One assay has as its system MOLT-3 Lymphoma. The experiment in a line: MTT assay, antiproliferative activity against MOLT-3. The assay is classed as cell-based. As to conditions: Homo sapiens, 24–36 hours drug exposure, 1.0 to 250 μM. The source says: (§1) The following human cancer cell lines were used in the present study: human leukemic cell lines Molt-3 and NALM-6. These cell lines were obtained from American Type Culture Collection (Manassas, Va.) and maintained as continuous cell lines in Dulbecco's modified Eagles's medium supplemented with 10% fetal bovine serum and antibiotics.
(§2) The antiproliferative activity of the COBRA compounds was examined against a panel of 2 different human tumor cell lines using standard MTT (3-[4,5-dimethylthiazol-2-yl]-2,5-diphenyl tetrazolium bromide) assays (Narla, R. K., Liu, X. P., Klis, D. and Uckun, F. M., Clin. Cancer Res., 1998, 4, 2463), (Boehringer Mannheim Corp., Indianapolis, Ind.). Briefly, exponentially growing brain tumor cells were seeded into a 96-well plate at a density of 2.5×10^4 cells/well and incubated for 36 hours at 37° C. prior to drug exposure. On the day of treatment, culture medium was carefully aspirated from the wells and replaced with fresh medium containing the test compounds at concentrations ranging from 1.0 to 250 μM. Triplicate wells were used for each treatment. The cells were incubated with the various compounds for 24–36 hours at 37° C. in a humidified 5% CO2 atmosphere. To each well, 10 μl of MTT (0.5 mg/ml final concentration) was added and the plates were incubated at 37° C. for 4 hours to allow MTT to form formazan crystals by reacting with metabolically active cells. The formazan crystals were solubilized overnight at 37° C. in a solution containing 10% SDS in 0.01 M HCl. The absorbence of each well was measured in a microplate reader (Labsystems) at 540 nm and a reference wavelength of 690 nm. To translate the OD 540 values into the number of live cells in each well, the OD 540 values were compared to those on standard OD 540—versus—cell number curves generated for each cell line. The percent survival was calculated using the formula: survival=Live cell number[test]×100/Live cell number [control].
(§3) IC50 values were calculated by non-linear regression analysis using an Graphpad Prism software version 2.0 (Graphpad Software, Inc., San Diego, Calif.).
(In general: Formazan colour is commonly taken as a measure of viable cells.)

For another assay, the system named is NALM-6 Leukemia. In words: MTT assay, antiproliferative activity against NALM-6. The assay is classed as cell-based. As to conditions: Homo sapiens, 24–36 hours drug exposure, 1.0 to 250 μM.
Excerpt: as §1, §2, §3

For orientation: IC50 means the concentration needed to halve the response being measured. A high value points to weaker potency.

With `CCCCCCCCCCCCC(O)c1ccccn1` (centres unmarked) [AC-17], the IC50 is 246 µM in the assay with MOLT-3 Lymphoma and 221 µM in the assay on NALM-6 Leukemia.
As for `CCCCCCCCCCCCC(O)c1ccc(-c2ccccc2Cl)o1` (centres unmarked) [AC-7], the IC50 with MOLT-3 Lymphoma and in the assay on NALM-6 Leukemia was greater than 250 µM in each case.
As to `CCCCCCCCCCCCC(O)c1ccc(C=O)s1` (centres unmarked) [AC-12], the figures for the IC50 in the assay with MOLT-3 Lymphoma and with NALM-6 Leukemia were 33 µM and 6 µM, respectively.
`CCCCCCCCCCCCC(O)c1[nH]cnc1C` (centres unmarked) [AC-15]: the IC50 in the assay with MOLT-3 Lymphoma is 9 µM; in the assay with NALM-6 Leukemia it was 25 µM.
The matching figures for `CCCCCCCCCCCCC(O)c1cccc(C)n1` (centres unmarked) [AC-16]: greater than 250 µM and 236 µM.
For the compound `CCCCCCCCCCCCC(O)c1ccco1` (centres unmarked) [AC-6], the IC50 in the assay with MOLT-3 Lymphoma is greater than 250 µM; with NALM-6 Leukemia it was 229 µM.
For the compound `CCCCCCCCCCCCC(O)c1cccs1` (centres unmarked) [AC-10], the IC50 with MOLT-3 Lymphoma stood at 125 µM; with NALM-6 Leukemia, 204 µM.
Turning to `CCCCCCCCCCCCC(O)c1ccc(Br)s1` (centres unmarked) [AC-11], the IC50 in the assay with MOLT-3 Lymphoma worked out at 2 µM; in the assay with NALM-6 Leukemia, 4 µM.
With `CCCCCCCCCCCCC(O)c1nccs1` (centres unmarked) [AC-13], the IC50 in the assay on MOLT-3 Lymphoma is 4 µM; with NALM-6 Leukemia it was greater than 250 µM.
Taken in the same sequence, the figures for `CCCCCCCCCCCCC(O)c1ncc[nH]1` (centres unmarked) [AC-14] were 58 µM and 3 µM.
